Common to all, as to assay type: functional, cell-based
Assay [1] concerns the target T1, Taste receptor type 2 member 46 (Homo sapiens) (UniProt P59540).
T1 sequence (whole entry): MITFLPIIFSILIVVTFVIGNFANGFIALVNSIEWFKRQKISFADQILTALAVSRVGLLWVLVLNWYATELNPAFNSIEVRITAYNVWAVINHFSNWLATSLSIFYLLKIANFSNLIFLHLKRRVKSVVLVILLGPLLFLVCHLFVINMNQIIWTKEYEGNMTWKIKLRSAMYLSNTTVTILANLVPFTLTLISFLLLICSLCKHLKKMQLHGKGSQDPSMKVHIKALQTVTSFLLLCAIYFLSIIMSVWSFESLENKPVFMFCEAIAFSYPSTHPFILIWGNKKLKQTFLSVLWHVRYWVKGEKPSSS
Description: Antagonist activity at recombinant human N-terminal rat ST3 receptor-fused TAS2R46 expressed in HEK293T cells co-expressing Galpha16gust44 assessed as inhibition of picrotoxinin-induced intracellular calcium level at 100 uM by FLIPR assay.

The target in assay [2] is T2, Taste receptor type 2 member 16 (Homo sapiens) (UniProt Q9NYV7).
T2 sequence (whole entry): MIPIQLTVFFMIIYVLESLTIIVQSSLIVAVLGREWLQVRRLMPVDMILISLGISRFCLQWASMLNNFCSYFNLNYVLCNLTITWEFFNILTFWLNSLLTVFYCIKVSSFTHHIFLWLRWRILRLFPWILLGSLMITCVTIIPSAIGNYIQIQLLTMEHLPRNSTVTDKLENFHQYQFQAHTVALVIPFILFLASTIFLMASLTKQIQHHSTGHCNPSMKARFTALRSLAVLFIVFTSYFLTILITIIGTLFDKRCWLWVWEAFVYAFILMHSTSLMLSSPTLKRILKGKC
Briefly: Antagonist activity at recombinant human N-terminal rat ST3 receptor-fused TAS2R16 expressed in HEK293T cells co-expressing Galpha16gust44 assessed as inhibition of D-salicin-induced increase in intracellular calcium level at 100 uM by FLIPR assay.

Assay [3] has as its target Taste receptor type 2 member 40 (Homo sapiens) (UniProt P59535). Description: Agonist activity at recombinant human N-terminal rat ST3 receptor-fused TAS2R40 expressed in HEK293T cells co-expressing Galpha16gust44 assessed as increase in intracellular calcium level at 100 uM by FLIPR assay.
The target in assay [4] is T1, Taste receptor type 2 member 46 (Homo sapiens). Description: Agonist activity at recombinant human N-terminal rat ST3 receptor-fused TAS2R46 expressed in HEK293T cells co-expressing Galpha16gust44 assessed as increase in intracellular calcium level at 100 uM by FLIPR assay.
For assay [5], the target named is Taste receptor type 2 member 40 (Homo sapiens) (UniProt P59535). Briefly: Antagonist activity at recombinant human N-terminal rat ST3 receptor-fused TAS2R40 expressed in HEK293T cells co-expressing Galpha16gust44 assessed as inhibition of cohumulone-induced intracellular calcium level at 100 uM by FLIPR assay.
Assay [6] concerns the target T3, Taste receptor type 2 member 9 (Homo sapiens) (UniProt Q9NYW1).
T3 sequence (whole entry): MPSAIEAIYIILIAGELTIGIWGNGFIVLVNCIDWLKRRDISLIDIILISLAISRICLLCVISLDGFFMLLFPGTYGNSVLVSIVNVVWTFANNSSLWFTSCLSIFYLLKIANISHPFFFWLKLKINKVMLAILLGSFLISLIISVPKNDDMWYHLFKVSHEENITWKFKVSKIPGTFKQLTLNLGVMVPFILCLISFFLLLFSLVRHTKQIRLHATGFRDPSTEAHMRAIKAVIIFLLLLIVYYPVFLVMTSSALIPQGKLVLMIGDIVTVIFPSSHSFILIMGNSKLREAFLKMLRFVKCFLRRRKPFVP
Briefly: Antagonist activity at recombinant human N-terminal rat ST3 receptor-fused TAS2R9 expressed in HEK293T cells co-expressing Galpha16gust44 assessed as inhibition of ofloxacin-induced increase in intracellular calcium level at 100 uM by FLIPR assay.

In assay [7] the target is T4, Taste receptor type 2 member 31 (Homo sapiens) (UniProt P59538).
T4 sequence (whole entry): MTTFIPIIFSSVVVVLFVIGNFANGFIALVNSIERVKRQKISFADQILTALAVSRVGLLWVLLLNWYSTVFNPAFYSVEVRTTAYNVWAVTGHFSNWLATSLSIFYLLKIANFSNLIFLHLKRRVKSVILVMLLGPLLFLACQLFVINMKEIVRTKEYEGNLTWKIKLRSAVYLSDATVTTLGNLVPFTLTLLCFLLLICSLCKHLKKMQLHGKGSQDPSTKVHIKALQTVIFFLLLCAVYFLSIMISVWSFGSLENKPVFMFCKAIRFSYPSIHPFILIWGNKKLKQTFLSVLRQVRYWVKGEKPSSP
Description: Antagonist activity at recombinant human N-terminal rat ST3 receptor-fused TAS2R44 expressed in HEK293T cells co-expressing Galpha16gust44 assessed as inhibition of aristolochic acid-induced intracellular calcium level at 100 uM by FLIPR assay.

In a further assay the test system is HEK-293T. Description: Effect on intracellular calcium level in mock-transfected HEK293T cells at 100 uM FLIPR assay. Conditions: Homo sapiens.
For assay [8], the target named is T5, Taste receptor type 2 member 30 (Homo sapiens) (UniProt P59541).
T5 sequence (whole entry): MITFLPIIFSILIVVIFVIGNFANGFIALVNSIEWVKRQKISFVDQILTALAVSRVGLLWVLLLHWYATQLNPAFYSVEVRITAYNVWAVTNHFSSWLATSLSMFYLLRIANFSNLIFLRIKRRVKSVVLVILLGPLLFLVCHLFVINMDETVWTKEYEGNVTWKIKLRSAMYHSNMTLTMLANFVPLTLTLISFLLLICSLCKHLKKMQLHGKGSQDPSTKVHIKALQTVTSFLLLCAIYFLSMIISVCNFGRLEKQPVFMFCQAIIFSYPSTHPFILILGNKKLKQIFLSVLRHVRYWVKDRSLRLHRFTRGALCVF
Briefly: Antagonist activity at recombinant human N-terminal rat ST3 receptor-fused TAS2R47 expressed in HEK293T cells co-expressing Galpha16gust44 assessed as inhibition of brucine-induced intracellular calcium level at 100 uM by FLIPR assay.

The target of assay [9] is T6, Taste receptor type 2 member 20 (Homo sapiens) (UniProt P59543).
T6 sequence (whole entry): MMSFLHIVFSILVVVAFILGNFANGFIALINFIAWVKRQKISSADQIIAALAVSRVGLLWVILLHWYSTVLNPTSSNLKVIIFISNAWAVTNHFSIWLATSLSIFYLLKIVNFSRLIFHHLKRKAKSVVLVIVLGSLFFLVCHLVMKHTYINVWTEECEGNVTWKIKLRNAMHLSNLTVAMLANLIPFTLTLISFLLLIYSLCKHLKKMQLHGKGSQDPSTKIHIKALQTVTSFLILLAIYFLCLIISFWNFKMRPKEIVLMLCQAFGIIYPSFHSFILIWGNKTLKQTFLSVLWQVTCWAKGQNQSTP
Description: Agonist activity at recombinant human N-terminal rat ST3 receptor-fused TAS2R49 expressed in HEK293T cells co-expressing Galpha16gust44 assessed as increase in intracellular calcium level at 100 uM by FLIPR assay.

Calls of active or inactive are those of the source. No cut-off for these calls is given here.

Sequence of Taste receptor type 2 member 40 (Homo sapiens) (P59535 whole entry, the tested form may be a part): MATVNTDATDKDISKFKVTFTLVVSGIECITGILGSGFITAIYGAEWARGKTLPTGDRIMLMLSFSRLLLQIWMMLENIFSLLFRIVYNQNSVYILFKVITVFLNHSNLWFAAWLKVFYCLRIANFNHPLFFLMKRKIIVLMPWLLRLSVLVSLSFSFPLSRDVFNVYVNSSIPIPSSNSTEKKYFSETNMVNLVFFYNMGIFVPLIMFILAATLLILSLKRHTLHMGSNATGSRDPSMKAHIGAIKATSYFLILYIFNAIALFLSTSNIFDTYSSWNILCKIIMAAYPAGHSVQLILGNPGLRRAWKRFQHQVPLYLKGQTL

As to `C/C1=C\C[C@H](O)/C(C)=C/[C@H]2OC(=O)[C@@H](C)[C@@H]2CC1`, the inhibition entry in assay [1], in assay [5] and in assay [8] was “Active” throughout. Further, the inhibition entry in assay [2], in assay [6] and in [7] was “inactive” throughout. The outcome (in assay [3]; in [4]; with HEK-293T; in assay [9]) was inactive.
Turning to `C/C1=C\C[C@H](O)[C@@H](C)C[C@H]2OC(=O)[C@@H](C)[C@@H]2CC1`, the inhibition entry in [1], in assay [5], in assay [7] and in assay [8] was “Active” each time. For the same compound, the inhibition entry in assay [2] and in assay [6] was “inactive” each time. For the same compound, the outcome in assay [4] was Active. In addition, the result with HEK-293T was inactive.
